Data: article PMC7162861, “Synthesis, cytotoxicity, pharmacokinetic profile, binding with DNA and BSA of new imidazo[1,2-a]pyrazine-benzo[d]imidazol-5-yl hybrids” (Scientific Reports, 2020)

Experiments:
[1] = tested on: SNB-19; assay: NCI cytotoxicity screen, CNS Cancer panel; assay type: cell-based; conditions: Homo sapiens; SNB-19; single dose 10 µM; negative = lethal; read-out: Percent growth inhibition
Procedure: (§1) Cytotoxicity was performed at National Cancer Institute (NCI), Bethesda, USA as per their protocols.

[2] = tested on: SF-268; assay: NCI cytotoxicity screen, CNS Cancer panel; assay type: cell-based; conditions: Homo sapiens, single dose 10 µM, negative = lethal, read-out: Percent growth inhibition
Procedure: as §1

[3] = tested on: SNB-75; assay: NCI cytotoxicity screen, CNS Cancer panel; assay type: cell-based; conditions: Homo sapiens, single dose 10 µM, negative = lethal, read-out: Percent growth inhibition
Procedure: as §1

[4] = tested on: SF-539; assay: NCI cytotoxicity screen, CNS Cancer panel; assay type: cell-based; conditions: Homo sapiens, single dose 10 µM, negative = lethal, read-out: Percent growth inhibition
Procedure: as §1

[5] = tested on: U251; assay: NCI cytotoxicity screen, CNS Cancer panel; assay type: cell-based; conditions: Homo sapiens, U-251; U251; single dose 10 µM; negative = lethal; read-out: Percent growth inhibition
Procedure: as §1

[6] = tested on: SF-295; assay: NCI cytotoxicity screen, CNS Cancer panel; assay type: cell-based; conditions: Homo sapiens, single dose 10 µM, negative = lethal, read-out: Percent growth inhibition
Procedure: as §1

[7] = tested on: PC-3; assay: NCI cytotoxicity screen, Prostate Cancer panel; assay type: cell-based, human; conditions: Homo sapiens, single dose 10 µM, negative = lethal, read-out: Percent growth inhibition
Procedure: as §1

[8] = tested on: DU-145; assay: NCI cytotoxicity screen, Prostate Cancer panel; assay type: cell-based, human; conditions: Homo sapiens, single dose 10 µM, negative = lethal, read-out: Percent growth inhibition
Procedure: as §1

[9] = tested on: HT29; assay: NCI cytotoxicity screen, Colon Cancer panel; assay type: cell-based; conditions: Homo sapiens, HT-29; HT29; single dose 10 µM; negative = lethal; read-out: Percent growth inhibition
Procedure: as §1

[10] = tested on: HCT-15; assay: NCI cytotoxicity screen, Colon Cancer panel; assay type: cell-based; conditions: Homo sapiens, single dose 10 µM, negative = lethal, read-out: Percent growth inhibition
Procedure: as §1

[11] = tested on: COLO 205; assay: NCI cytotoxicity screen, Colon Cancer panel; assay type: cell-based; conditions: Homo sapiens, single dose 10 µM, negative = lethal, read-out: Percent growth inhibition
Procedure: as §1

[12] = tested on: HCT-116; assay: NCI cytotoxicity screen, Colon Cancer panel; assay type: cell-based; conditions: Homo sapiens, single dose 10 µM, negative = lethal, read-out: Percent growth inhibition
Procedure: as §1

[13] = tested on: MDA-MB-468; assay: NCI cytotoxicity screen, Breast Cancer panel; assay type: cell-based; conditions: Homo sapiens, single dose 10 µM, negative = lethal, read-out: Percent growth inhibition
Procedure: as §1

[14] = tested on: MDA-MB-231/ATCC; assay: NCI cytotoxicity screen, Breast Cancer panel; assay type: cell-based; conditions: Homo sapiens, MDA-MB-231, read-out: Percent growth inhibition
Procedure: as §1

[15] = tested on: HS 578 T; assay: NCI cytotoxicity screen, Breast Cancer panel; assay type: cell-based; conditions: Homo sapiens; HS 578T; single dose 10 µM; negative = lethal; read-out: Percent growth inhibition
Procedure: as §1

[16] = tested on: MCF7; assay: NCI cytotoxicity screen, Breast Cancer panel; assay type: cell-based; conditions: Homo sapiens, single dose 10 µM, negative = lethal, read-out: Percent growth inhibition
Procedure: as §1

[17] = tested on: T-47D; assay: NCI cytotoxicity screen, Breast Cancer panel; assay type: cell-based; conditions: Homo sapiens, T47D, T-47D; single dose 10 µM; negative = lethal; read-out: Percent growth inhibition
Procedure: as §1

[18] = tested on: BT-549; assay: NCI cytotoxicity screen, Breast Cancer panel; assay type: cell-based; conditions: Homo sapiens, single dose 10 µM, negative = lethal, read-out: Percent growth inhibition
Procedure: as §1

[19] = tested on: HOP-92; assay: NCI cytotoxicity screen, Non-Small Cell Lung Cancer panel; assay type: cell-based; conditions: Homo sapiens, single dose 10 µM, negative = lethal, read-out: Percent growth inhibition
Procedure: as §1

[20] = tested on: A549/ATCC; assay: as above; assay type: cell-based; conditions: Homo sapiens; A549/ATCC; single dose 10 µM; negative = lethal; read-out: Percent growth inhibition
Procedure: as §1

[21] = tested on: HOP-62; assay: as above; assay type: cell-based; conditions: Homo sapiens, single dose 10 µM, negative = lethal, read-out: Percent growth inhibition
Procedure: as §1

[22] = tested on: NCI-H460; assay: as above; assay type: cell-based; conditions: Homo sapiens, single dose 10 µM, negative = lethal, read-out: Percent growth inhibition
Procedure: as §1

[23] = tested on: EXVX; assay: as above; assay type: cell-based; conditions: Homo sapiens; EXVX; single dose 10 µM; negative = lethal; read-out: Percent growth inhibition
Procedure: as §1

[24] = tested on: CCRF-CEM; assay: NCI cytotoxicity screen, Leukemia panel; assay type: cell-based; conditions: Homo sapiens, single dose 10 µM, negative = lethal, read-out: Percent growth inhibition
Procedure: as §1

[25] = tested on: SR; assay: NCI cytotoxicity screen, Leukemia panel; assay type: cell-based; conditions: Homo sapiens, single dose 10 µM, negative = lethal, read-out: Percent growth inhibition
Procedure: as §1

[26] = tested on: K-562; assay: NCI cytotoxicity screen, Leukemia panel; assay type: cell-based; conditions: Homo sapiens, K562; K-562; single dose 10 µM; negative = lethal; read-out: Percent growth inhibition
Procedure: as §1

[27] = tested on: HL-60(TB); assay: NCI cytotoxicity screen, Leukemia panel; assay type: cell-based; conditions: Homo sapiens, HL-60, HL-60(TB); single dose 10 µM; negative = lethal; read-out: Percent growth inhibition
Procedure: as §1

[28] = tested on: RPMI-8226; assay: NCI cytotoxicity screen, Leukemia panel; assay type: cell-based; conditions: Homo sapiens; RPMI-8226; single dose 10 µM; negative = lethal; read-out: Percent growth inhibition
Procedure: as §1

[29] = tested on: MOLT-4; assay: NCI cytotoxicity screen, Leukemia panel; assay type: cell-based; conditions: Homo sapiens, MOLT-4, MOLT-4; single dose 10 µM; negative = lethal; read-out: Percent growth inhibition
Procedure: as §1

Brc1cn2ccnc2c(-c2ccc3c(c2)ncn3C2CCCCC2)n1 [Compound 8, 6-bromo-8-(1-cyclohexyl-1H-benzo[d]imidazol-5-yl)imidazo[1,2-a]pyrazine]
inhibition at 10 µM [1]: 10.5%
inhibition at 10 µM [2]: 5.8%
inhibition at 10 µM [3]: 16.4%
inhibition at 10 µM [4]: 6.65%
inhibition at 10 µM [5]: < 1%
inhibition at 10 µM [6]: 7.58%
inhibition at 10 µM [7]: 10.3%
inhibition at 10 µM [8]: < 1%
inhibition at 10 µM [9]: 4.48%
inhibition at 10 µM [10]: 4.25%
inhibition at 10 µM [11]: < 1%
inhibition at 10 µM [12]: 6.06%
inhibition at 10 µM [13]: 6.27%
inhibition at 10 µM [14]: 3.12%
inhibition at 10 µM [15]: 2.68%
inhibition at 10 µM [16]: 37.6%
inhibition at 10 µM [17]: 25.3%
inhibition at 10 µM [18]: 6.38%
inhibition at 10 µM [19]: 21.9%
inhibition at 10 µM [20]: 4.8%
inhibition at 10 µM [21]: 13%
inhibition at 10 µM [22]: 3.26%
inhibition at 10 µM [23]: 10.3%
inhibition at 10 µM [24]: < 1%
inhibition at 10 µM [25]: 20.6%
inhibition at 10 µM [26]: 17.4%
inhibition at 10 µM [27]: 10.5%
inhibition at 10 µM [28]: < 1%
inhibition at 10 µM [29]: 17.4%
